Patent publication US7687609B2, “Galectin-glycosaminoglycan complex and method for controlling galectin activity” (National Institute of Advanced Industrial Science and …, priority 2006, dated 2010)

Columns and labels:
Type in all cases: binding
Galectin-1 = target: T1, Galectin-1 (Homo sapiens, UniProt P09382); assay: FAC affinity test on galectin-immobilized column; details: for V − V0 Value: pyridyl-aminated carbohydrate, galectin-1 immobilized 0.8 mg/ml, less than 5 μl = below interaction detection limit; for binding to galectin-1 (in words): text statement on the FAC results
T1 construct: made in house
Procedure: (§1) Various galectin molecules-immobilized columns were prepared by the method described by Nakamura S, Yagi F, Totani K, Ito γ and Hirabayashi J in FEBS J., 272, 2784-2799 (2005), using NHS Sepharose (manufactured by Amersham Bioscience) as the carrier for immobilizing galectin molecules and in accordance with the instructions attached thereto (put in parentheses is immobilization concentration, mg galectin/ml carrier).
(§2) Each galectin molecule was immobilized onto the carrier at the following concentration; galectin-1 (0.8 mg/ml), galectin-3 (0.5 mg/ml), galectin-8N (3.6 mg/ml), galectin-8C (4.0 mg/ml), galectin-9N (3.6 mg/ml), galectin-9C (3.0 mg/ml). The carrier on which each galectin was immobilized was charged into a stainless steel miniature column (2 mm in inner diameter, 10 mm in length; manufactured by Shimadzu Corp.).
(§3) A high performance liquid chromatography (HPLC) system was equipped with a galectin molecule-immobilized column, and the test was carried out by the method described in Nakamura S, Yagi F, Totani K, Ito γ and Hirabayashi J in FEBS J., 272, 2784-2799 (2005).
(§4) As the negative control sample, pyridyl-aminated N-acetylglucosamine (PA-GlcNAc, manufactured by Takara Bio, pyridyl-aminated glycosaminoglycan-oligosaccharide sample control) or pyridyl-aminated pullulan (prepared by carrying out pyridylamination of standard pullulan manufactured by Shodex, pyridyl-aminated glycosaminoglycan polysaccharide sample control) was used, and a V−V0 value was calculated from their eluate volume (V0 value) measured by fluorescence detection and the eluate volume (V value) of the sample, namely pyridyl-aminated glycosaminoglycan carbohydrate, and this was used as the index of interaction strength (Protein, Nucleic Acid and Enzyme, 48(8), 1206-1212 (2003)).
(§5) V−V0 values of pyridyl-aminated glycosaminoglycans (HA, CH, DN, NAH, CSA, CSB, CSC, CSD, CSE, KS-I and KS-II) were calculated based on PA-GlcNAc, and V−V0 values of pyridyl-aminated glycosaminoglycan-oligosaccharides (G2K1, G1L1, G4L4, L2L2, L2L4, L4L4, SL2L4 and CH3 to CH12) based on pyridyl-aminated pullulan, respectively.
(§6) In this connection, when the calculated value of the V−V0 value was less than 5 μl, it was regarded as less than the interaction detection limit in this example.

Galectin-3 = target: T2, Galectin-3 (Homo sapiens, UniProt P17931); assay: FAC affinity test on galectin-immobilized column; details: for V − V0 Value: pyridyl-aminated carbohydrate, galectin-3 immobilized 0.5 mg/ml, less than 5 μl = below interaction detection limit; for binding to galectin-3 (in words): text statement on the FAC results
T2 construct: made in house
Procedure: as §1, §2, §3, §4, §5, §6

Galectin-8C = target: T3, Galectin-8C (Homo sapiens, UniProt O00214); assay: FAC affinity test on galectin-immobilized column; details: pyridyl-aminated carbohydrate; galectin-8C immobilized 4.0 mg/ml; less than 5 μl = below interaction detection limit
T3 construct: N and C respectively represent N-terminal side carbohydrate-recognition domain and C-terminal side carbohydrate-recognition domain; made in house
T3 sequence (O00214 187-317 limits assumed): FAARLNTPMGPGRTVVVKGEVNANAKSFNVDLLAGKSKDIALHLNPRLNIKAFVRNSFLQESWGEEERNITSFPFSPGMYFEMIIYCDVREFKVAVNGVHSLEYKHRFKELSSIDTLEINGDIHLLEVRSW
Procedure: as §1, §2, §3, §4, §5, §6

Galectin-8N = target: T4, Galectin-8N (Homo sapiens, UniProt O00214); assay: FAC affinity test on galectin-immobilized column; details: for V − V0 Value: pyridyl-aminated carbohydrate, galectin-8N immobilized 3.6 mg/ml, less than 5 μl = below interaction detection limit
T4 construct: N and C respectively represent N-terminal side carbohydrate-recognition domain and C-terminal side carbohydrate-recognition domain; made in house
T4 sequence (O00214 19-152 limits assumed): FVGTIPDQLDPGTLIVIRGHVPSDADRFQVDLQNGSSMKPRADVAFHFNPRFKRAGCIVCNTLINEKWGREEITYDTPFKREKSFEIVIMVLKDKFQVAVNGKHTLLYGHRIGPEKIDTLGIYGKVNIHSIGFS
Procedure: as §1, §2, §3, §4, §5, §6

Galectin-9C = target: T5, Galectin-9C (Homo sapiens, UniProt O00182); assay: FAC affinity test on galectin-immobilized column; details: for V − V0 Value: pyridyl-aminated carbohydrate, galectin-9C immobilized 3.0 mg/ml, less than 5 μl = below interaction detection limit; for binding to galectin-9C (in words): text statement on the FAC results
T5 construct: N and C respectively represent N-terminal side carbohydrate-recognition domain and C-terminal side carbohydrate-recognition domain; made in house
Procedure: as §1, §2, §3, §4, §5, §6

Galectin-9N = target: T6, Galectin-9N (Homo sapiens, UniProt O00182); assay: FAC affinity test on galectin-immobilized column; details: for V − V0 Value: pyridyl-aminated carbohydrate, galectin-9N immobilized 3.6 mg/ml, less than 5 μl = below interaction detection limit; for binding to galectin-9N (in words): text statement on the FAC results
T6 construct: N and C respectively represent N-terminal side carbohydrate-recognition domain and C-terminal side carbohydrate-recognition domain; made in house
Procedure: as §1, §2, §3, §4, §5, §6

[1] = test system: tested galectin molecules (galectin-1, 3, 8N, 8C, 9N and 9C); assay: FAC affinity test, statements on the whole panel of tested galectins; details: Table 3, whole galectin panel
Text: Using FAC, the present inventors have conducted a comprehensive analysis of the interactions between various galectin molecules (galectin-1, 3, 8N, 8C, 9N and 9C; N and C respectively represent N-terminal side carbohydrate-recognition domain and C-terminal side carbohydrate-recognition domain)-immobilized columns and various fluorescence-labeled glycosaminoglycan molecules. As a result, novel affinity was found by the combination of specific galectin molecules and glycosaminoglycan molecules to thereby accomplish the present invention.
as §3, §4, §6

T6 sequence (O00182 17-148 limits assumed): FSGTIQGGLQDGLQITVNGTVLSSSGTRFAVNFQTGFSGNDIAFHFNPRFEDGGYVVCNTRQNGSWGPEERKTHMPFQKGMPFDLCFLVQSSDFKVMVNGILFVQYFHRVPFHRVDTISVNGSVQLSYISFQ
T2 sequence (P17931 whole entry): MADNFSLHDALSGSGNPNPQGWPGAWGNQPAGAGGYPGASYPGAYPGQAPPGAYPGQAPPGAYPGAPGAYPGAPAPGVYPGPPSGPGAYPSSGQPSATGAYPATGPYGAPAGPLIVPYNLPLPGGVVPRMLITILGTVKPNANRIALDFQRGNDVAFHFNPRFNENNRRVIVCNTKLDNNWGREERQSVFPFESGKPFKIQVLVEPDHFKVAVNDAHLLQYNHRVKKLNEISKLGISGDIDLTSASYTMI
T5 sequence (O00182 227-355 limits assumed): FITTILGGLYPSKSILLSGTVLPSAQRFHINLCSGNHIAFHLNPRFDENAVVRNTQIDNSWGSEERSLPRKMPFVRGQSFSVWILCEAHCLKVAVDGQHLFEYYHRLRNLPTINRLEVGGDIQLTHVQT
T1 sequence (P09382 whole entry): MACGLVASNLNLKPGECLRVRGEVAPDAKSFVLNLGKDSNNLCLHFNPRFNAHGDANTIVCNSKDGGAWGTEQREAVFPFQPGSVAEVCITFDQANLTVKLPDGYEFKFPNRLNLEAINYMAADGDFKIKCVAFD

Molecule | V − V0 Value (Galectin-1) | V − V0 Value (Galectin-3) | V − V0 Value (Galectin-8C) | V − V0 Value (Galectin-8N) | V − V0 Value (Galectin-9C) | V − V0 Value (Galectin-9N) | binding to the tested galectin molecules (in words) [1] | binding to galectin-3 (in words) (Galectin-3) | binding to galectin-9N (in words) (Galectin-9N) | binding to galectin-8N (in words) (Galectin-8N; text statement on the FAC results) | binding to galectin-1 (in words) (Galectin-1) | binding to galectin-9C (in words) (Galectin-9C)
chondroitin sulfate E [CSE, reference compound] | <5.0 µL | <5.0 µL | <5.0 µL | <5.0 µL | <5.0 µL | <5.0 µL | did not bind | – | – | – | – | –
CC(=O)N[C@H]1[C@H](O[C@H]2[C@@H](O)[C@@H](CO)O[C@@H](O[C@H]3[C@H](O)[C@@H](NC(C)=O)C(O)O[C@@H]3CO)[C@@H]2O)O[C@H](CO)[C@@H](O)[C@@H]1O (stereo partly drawn) [G1L1, GlcNAc β1-3 Gal β1-4 GlcNAc] | <5.0 µL | 14.2 ± 1.3 µL | <5.0 µL | <5.0 µL | <5.0 µL | 13.6 ± 0.5 µL | bound to various galectin molecules | showed binding affinity | showed binding affinity | – | – | –
Hyaluronan [HA, reference compound] | <5.0 µL | <5.0 µL | <5.0 µL | <5.0 µL | <5.0 µL | <5.0 µL | did not bind | – | – | – | – | –
chondroitin sulfate D [CSD, reference compound] | <5.0 µL | <5.0 µL | <5.0 µL | <5.0 µL | <5.0 µL | <5.0 µL | did not bind | – | – | – | – | –
CC(=O)NC1C(O)OC(COS(=O)(=O)O)C(OC2OC(COS(=O)(=O)O)C(O)C(OC3OC(COS(=O)(=O)O)C(OC4OC(CO)C(O)C(OC5(C(=O)O)CC(O)C(NC(C)=O)C(C(O)C(O)CO)O5)C4O)C(O)C3NC(C)=O)C2O)C1O (stereo not drawn) [SL2L4, NeuAc α2-3 Gal β1-4 GlcNAc6S β1-3 Gal6S β1-4 GlcNAc6S] | <5.0 µL | 8.2 ± 0.2 µL | <5.0 µL | 26.5 ± 0.9 µL | <5.0 µL | <5.0 µL | bound to various galectin molecules | showed binding affinity | – | showed binding affinity | – | –
Gal β1-4 GlcNAc6S β1-3 Gal β1-4 GlcNAc6S [L2L2] | 6.2 ± 1.7 µL | 22.6 ± 1.1 µL | <5.0 µL | <5.0 µL | 7.7 ± 0.4 µL | 8.8 ± 0.3 µL | bound to various galectin molecules | showed binding affinity | showed binding affinity | – | showed binding affinity | showed binding affinity
dermatan sulfate [CSB, reference compound] | <5.0 µL | <5.0 µL | <5.0 µL | <5.0 µL | <5.0 µL | <5.0 µL | did not bind | – | – | – | – | –
N-acetylheparosan [NAH, reference compound] | <5.0 µL | <5.0 µL | <5.0 µL | <5.0 µL | <5.0 µL | <5.0 µL | did not bind | – | – | – | – | –
CC(=O)N[C@H]1[C@H](O[C@H]2[C@@H](O)[C@@H](CO)OC(O)[C@@H]2O)O[C@H](CO)[C@@H](O[C@@H]2O[C@H](CO)[C@H](O)[C@H](O)[C@H]2O)[C@@H]1O (stereo partly drawn) [G2K1, Gal β1-4 GlcNAc β1-3 Gal] | 21.8 ± 1.9 µL | 11.6 ± 0.1 µL | <5.0 µL | <5.0 µL | 6.7 ± 0.2 µL | 5.1 ± 1.3 µL | bound to various galectin molecules | showed binding affinity | showed binding affinity | – | showed binding affinity | showed binding affinity
CC(=O)N[C@H]1[C@H](O[C@H]2[C@@H](O)[C@@H](COS(=O)(=O)O)O[C@@H](O[C@H]3[C@H](O)[C@@H](NC(C)=O)C(O)O[C@@H]3COS(=O)(=O)O)[C@@H]2O)O[C@H](COS(=O)(=O)O)[C@@H](O[C@@H]2O[C@H](CO)[C@H](O)[C@H](O)[C@H]2O)[C@@H]1O (stereo partly drawn) [L2L4, Gal β1-4 GlcNAc6S β1-3 Gal6S β1-4 GlcNAc6S] | 5.8 ± 0.2 µL | 15.8 ± 1.8 µL | <5.0 µL | <5.0 µL | 5.3 ± 0.7 µL | 6.6 ± 1.4 µL | bound to various galectin molecules | showed binding affinity | showed binding affinity | – | showed binding affinity | showed binding affinity
CC(=O)N[C@H]1[C@H](O[C@H]2[C@@H](O)[C@@H](COS(=O)(=O)O)O[C@@H](O[C@H]3[C@H](O)[C@@H](NC(C)=O)C(O)O[C@@H]3COS(=O)(=O)O)[C@@H]2O)O[C@H](COS(=O)(=O)O)[C@@H](O)[C@@H]1O (stereo partly drawn) [G4L4, GlcNAc6S β1-3 Gal6S β1-4 GlcNAc6S] | <5.0 µL | <5.0 µL | <5.0 µL | <5.0 µL | <5.0 µL | <5.0 µL | did not bind | – | – | – | – | –
